# According to ChEMBL document CHEMBL1201862, “PubChem BioAssay data set” (2004):
#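 Grown in 96-well plates, cells were treated for 48 hours with each compound at five concentrations. Insufficient inhibition: endpoint recorded as highest concentration tested. The concentration for 50% growth inhibition is given as GI50.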 Active and inactive are the calls of the source. Cut-off read from the data, not from the text of the source: active = GI50 up to about 1.1 µM and inactive = higher.
# Legend:
# Experiment in all cases: DTP human tumour cell line panel, 48 h
# SN12C = test system: SN12C
# EKVX = test system: EKVX
# CCRF-CEM = test system: CCRF-CEM
# IGROV-1 = test system: IGROV-1
# A549 = test system: A549
# Hs-578T = test system: Hs-578T
# TK-10 = test system: TK-10
# UO-31 = test system: UO-31
# MOLT-4 = test system: MOLT-4
# HT-29 = test system: HT-29
# OVCAR-3 = test system: OVCAR-3
# UACC-257 = test system: UACC-257
# SW-620 = test system: SW-620
# HCC 2998 = test system: HCC 2998
# PC-3 = test system: PC-3
# SK-OV-3 = test system: SK-OV-3
# SK-MEL-5 = test system: SK-MEL-5
# RPMI-8226 = test system: RPMI-8226
# BT-549 = test system: BT-549
# NCI-H226 = test system: NCI-H226
Structure (SMILES),GI50 (SN12C),GI50 (EKVX),GI50 (CCRF-CEM),GI50 (IGROV-1),GI50 (A549),GI50 (Hs-578T),GI50 (TK-10),GI50 (UO-31),GI50 (MOLT-4),GI50 (HT-29),GI50 (OVCAR-3),GI50 (UACC-257),GI50 (SW-620),GI50 (HCC 2998),GI50 (PC-3),GI50 (SK-OV-3),GI50 (SK-MEL-5),GI50 (RPMI-8226),GI50 (BT-549),GI50 (NCI-H226)
O=c1ccn(Cc2ccccc2CCl)c(=O)[nH]1,27.6 µM (inactive),25.4 µM (inactive),30.7 µM (inactive),24.3 µM (inactive),47.8 µM (inactive),29.2 µM (inactive),39.1 µM (inactive),29.3 µM (inactive),40.6 µM (inactive),24.2 µM (inactive),22.3 µM (inactive),25.8 µM (inactive),35.5 µM (inactive),22.7 µM (inactive),31.8 µM (inactive),46.5 µM (inactive),3 µM (inactive),–,–,–
CCCCC(=O)Nc1ccc2cc(C(=O)OC)c(=O)[nH]c2n1,> 100 µM (inactive),> 100 µM (inactive),59.4 µM (inactive),> 100 µM (inactive),> 100 µM (inactive),–,> 100 µM (inactive),> 100 µM (inactive),> 100 µM (inactive),–,> 100 µM (inactive),> 100 µM (inactive),> 100 µM (inactive),> 100 µM (inactive),> 100 µM (inactive),> 100 µM (inactive),> 100 µM (inactive),> 100 µM (inactive),> 100 µM (inactive),> 100 µM (inactive)
O=c1c2ccc(S(=O)(=O)c3ccc4c(=O)n5c6ccccc6nc5c5cccc3c45)c3cccc(c32)c2nc3ccccc3n12,> 100 µM (inactive),43.9 µM (inactive),–,1.98 µM (inactive),> 100 µM (inactive),–,21.8 µM (inactive),39.9 µM (inactive),–,> 100 µM (inactive),> 100 µM (inactive),> 100 µM (inactive),–,> 100 µM (inactive),> 100 µM (inactive),5.26 µM (inactive),> 100 µM (inactive),> 100 µM (inactive),20 µM (inactive),41.6 µM (inactive)
CCCCCCCCCCCCCCCCNc1ccn(C2CC(OP(=O)(O)OCC3OC(n4cc(CC)c(=O)[nH]c4=O)CC3O)C(CO)O2)c(=O)n1 (stereo not given),41.5 µM (inactive),43 µM (inactive),–,41.5 µM (inactive),22 µM (inactive),22.1 µM (inactive),77.3 µM (inactive),19.2 µM (inactive),20.3 µM (inactive),21.6 µM (inactive),38.3 µM (inactive),30.3 µM (inactive),23.8 µM (inactive),24.5 µM (inactive),18.5 µM (inactive),27.3 µM (inactive),2.29 µM (inactive),17.8 µM (inactive),–,47.2 µM (inactive)
O=C1C(=O)C(CCCO)(CCCO)CCCCCCCCC1(CCCO)CCCO,> 100 µM (inactive),> 100 µM (inactive),–,41.3 µM (inactive),45.8 µM (inactive),57.7 µM (inactive),87.3 µM (inactive),37.4 µM (inactive),–,67 µM (inactive),32.2 µM (inactive),73.8 µM (inactive),> 100 µM (inactive),> 100 µM (inactive),55.3 µM (inactive),> 100 µM (inactive),41.1 µM (inactive),< 0.01 µM (active),–,> 100 µM (inactive)
COc1cc(OC)c(NC2=NCCO2)cc1Cl,44.4 µM (inactive),61.9 µM (inactive),54 µM (inactive),38 µM (inactive),46.3 µM (inactive),61.7 µM (inactive),60.3 µM (inactive),91.6 µM (inactive),44.2 µM (inactive),23.5 µM (inactive),43.6 µM (inactive),31 µM (inactive),> 100 µM (inactive),23.8 µM (inactive),24.3 µM (inactive),–,23.1 µM (inactive),46.8 µM (inactive),–,25.7 µM (inactive)
CC(C)=NN/C=N\C(C#N)=C(/N)C#N,–,> 100 µM (inactive),> 100 µM (inactive),> 100 µM (inactive),> 100 µM (inactive),–,> 100 µM (inactive),> 100 µM (inactive),> 100 µM (inactive),> 100 µM (inactive),> 100 µM (inactive),> 100 µM (inactive),> 100 µM (inactive),0.262 µM (active),> 100 µM (inactive),> 100 µM (inactive),25.8 µM (inactive),> 100 µM (inactive),> 100 µM (inactive),> 100 µM (inactive)
CC1=CCC2CC1NC(=O)CCOCCC(=O)NC2(C)C (stereo not given),> 100 µM (inactive),–,> 100 µM (inactive),–,> 100 µM (inactive),–,> 100 µM (inactive),> 100 µM (inactive),> 100 µM (inactive),> 100 µM (inactive),–,> 100 µM (inactive),> 100 µM (inactive),> 100 µM (inactive),> 100 µM (inactive),> 100 µM (inactive),> 100 µM (inactive),> 100 µM (inactive),–,> 100 µM (inactive)
O=C(/C=C/c1ccc(OCc2ccccc2)c(OCc2ccccc2)c1)OCc1ccccc1,> 100 µM (inactive),> 100 µM (inactive),–,> 100 µM (inactive),> 100 µM (inactive),–,> 100 µM (inactive),> 100 µM (inactive),> 100 µM (inactive),> 100 µM (inactive),> 100 µM (inactive),> 100 µM (inactive),> 100 µM (inactive),> 100 µM (inactive),> 100 µM (inactive),> 100 µM (inactive),> 100 µM (inactive),> 100 µM (inactive),> 100 µM (inactive),> 100 µM (inactive)
O=C1OC(c2ccccc2)(c2ccccc2)c2ccc3ccc(F)cc3c21,> 100 µM (inactive),53.3 µM (inactive),31.3 µM (inactive),> 100 µM (inactive),19.3 µM (inactive),–,> 100 µM (inactive),79.4 µM (inactive),> 100 µM (inactive),13.6 µM (inactive),68.7 µM (inactive),37.1 µM (inactive),23.9 µM (inactive),37.2 µM (inactive),–,> 100 µM (inactive),20 µM (inactive),> 100 µM (inactive),–,> 100 µM (inactive)
Nc1ccccc1C#CC(=O)c1cccc(C(F)(F)F)c1,2.06 µM (inactive),16.3 µM (inactive),0.867 µM (active),0.258 µM (active),16.8 µM (inactive),2.56 µM (inactive),17.2 µM (inactive),1.29 µM (inactive),2.55 µM (inactive),4.16 µM (inactive),3.78 µM (inactive),15.7 µM (inactive),2.21 µM (inactive),–,3.41 µM (inactive),15.3 µM (inactive),2.35 µM (inactive),2.3 µM (inactive),–,3.58 µM (inactive)
CCOC(=O)C1CSCCSC1,> 100 µM (inactive),–,> 100 µM (inactive),–,> 100 µM (inactive),> 100 µM (inactive),> 100 µM (inactive),> 100 µM (inactive),> 100 µM (inactive),> 100 µM (inactive),–,> 100 µM (inactive),> 100 µM (inactive),25.5 µM (inactive),> 100 µM (inactive),> 100 µM (inactive),43.2 µM (inactive),–,–,> 100 µM (inactive)
